Eight molecules from ChEMBL document CHEMBL1201862, “PubChem BioAssay data set” (2004) can be followed below.

Molecules are shown by their SMILES.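 Assay format: 96-well plates, 48-hour exposure. At the GI50, growth is halved.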 Calls of active or inactive are those of the source. Rule as the data show it: active = GI50 up to about 1.1 µM and inactive = higher.

Test systems include U-251; SK-MEL-5; CCRF-CEM; SNB-19; DU-145; HOP-92; A498; UACC-62; M14; NCI-H522; NCI/ADR-RES; UO-31; TK-10; HOP-62; HL-60; EKVX; HCC 2998; A549; CAKI-1; SNB-75.
Holding throughout (test): growth of human tumour cells (NCI), 48 h

For the molecule `Cc1ccc(C(=O)CCl)o1`, the GI50 in the assay on U-251 is > 10 µM (inactive); with SK-MEL-5, > 7.96 µM (inactive); with CCRF-CEM, 2.39 µM (inactive); in the assay with SNB-19 it was > 10 µM (inactive); in the assay on DU-145, > 10 µM (inactive); with HOP-92 it was > 10 µM (inactive). The GI50 with A498 was > 10 µM (inactive); in the assay on UACC-62, > 7.91 µM (inactive); in the assay on M14 it was 3.86 µM (inactive); in the assay with NCI-H522 it was 2.92 µM (inactive); with NCI/ADR-RES, > 10 µM (inactive); in the assay with UO-31, > 4.67 µM (inactive). Besides, the GI50 in the assay on TK-10 was 6.9 µM (inactive); in the assay with HOP-62, > 10 µM (inactive); with HL-60 it was 2.11 µM (inactive); in the assay on EKVX, > 10 µM (inactive); with HCC 2998, > 10 µM (inactive); in the assay with A549, > 10 µM (inactive). The values for the GI50 in the assay with CAKI-1 and in the assay with SNB-75 were 3.12 µM (inactive) and > 9.46 µM (inactive), respectively.
Consider `Cc1cc(=O)oc2cc(OC(=O)Nc3ccccc3)ccc12`, for which the GI50 is 86.3 µM (inactive) with U-251; 59 µM (inactive) in the assay with SK-MEL-5; 27.2 µM (inactive) in the assay with CCRF-CEM; > 100 µM (inactive) in the assay with SNB-19; 76.9 µM (inactive) with DU-145; 29.3 µM (inactive) with HOP-92. The GI50 in the assay on A498 is 64.4 µM (inactive); in the assay with UACC-62, 41.2 µM (inactive); in the assay with M14, > 100 µM (inactive); in the assay with NCI-H522 it was 53.1 µM (inactive); with NCI/ADR-RES, 63.2 µM (inactive); with UO-31 it was 40.4 µM (inactive). Besides, the GI50 in the assay on TK-10 was > 100 µM (inactive); in the assay with HOP-62 it was > 100 µM (inactive); in the assay with HL-60, 20.6 µM (inactive); in the assay with EKVX, > 100 µM (inactive); with HCC 2998, 84.3 µM (inactive); in the assay with A549, 62.1 µM (inactive). The GI50 with CAKI-1 and in the assay on SNB-75 was > 100 µM (inactive) each time.
Regarding `CCCc1cc(-c2ccc(-c3cc(CCC)c(C=O)[nH]3)s2)[nH]c1C=O`, the GI50 was 61.1 µM (inactive) with U-251; 29.4 µM (inactive) in the assay on SK-MEL-5; 2.44 µM (inactive) in the assay on CCRF-CEM; > 100 µM (inactive) in the assay on SNB-19; > 100 µM (inactive) with DU-145; 27.5 µM (inactive) in the assay on HOP-92. The GI50 in the assay on A498 is > 69.5 µM (inactive); in the assay on UACC-62, > 32.6 µM (inactive); in the assay on M14, 7.08 µM (inactive); with NCI-H522, 5.45 µM (inactive); with NCI/ADR-RES it was 18.4 µM (inactive); with UO-31 it was 22.6 µM (inactive). The GI50 in the assay with TK-10 is > 100 µM (inactive); in the assay on HOP-62, > 100 µM (inactive); in the assay on HL-60, 4.3 µM (inactive); with EKVX it was > 100 µM (inactive); in the assay with HCC 2998, 5.56 µM (inactive); with A549, 4.42 µM (inactive). The GI50 with CAKI-1 and in the assay on SNB-75 was > 100 µM (inactive) each time.
Consider `Cc1cn(C2CC(N)C(CN)O2)c(=O)[nH]c1=O` (stereo not given), for which the GI50 in the assay with U-251, in the assay with SK-MEL-5, in the assay on CCRF-CEM, with SNB-19, in the assay with DU-145 and with HOP-92 was > 100 µM (inactive) each time. Also, the GI50 in the assay on A498, in the assay with UACC-62, with M14, in the assay with NCI-H522, with NCI/ADR-RES and in the assay on UO-31 was > 100 µM (inactive) throughout. For the same molecule, the GI50 in the assay on TK-10, with HOP-62, with HL-60, in the assay with EKVX, in the assay on HCC 2998 and with A549 was > 100 µM (inactive) throughout. The GI50 is > 100 µM (inactive) in the assay on CAKI-1 and 38.5 µM (inactive) with SNB-75.
With `Cn1c(-c2ccc[se]2)ccc1-c1ccc(C=O)[se]1`, the GI50 was 0.0811 µM (active) with U-251; 20.7 µM (inactive) in the assay on SK-MEL-5; 0.859 µM (active) with CCRF-CEM; > 100 µM (inactive) in the assay on SNB-19; 29.4 µM (inactive) in the assay with DU-145; 10.5 µM (inactive) with HOP-92. For the same molecule, the GI50 is 1.17 µM (inactive) in the assay on A498; 0.205 µM (active) in the assay with UACC-62; > 86.3 µM (inactive) with M14; 16.4 µM (inactive) with NCI-H522; 2.16 µM (inactive) in the assay on NCI/ADR-RES; > 76.4 µM (inactive) with UO-31. Moreover, the GI50 was 0.124 µM (active) in the assay on TK-10; 0.385 µM (active) with HOP-62; 9.31 µM (inactive) in the assay on HL-60; 48.5 µM (inactive) in the assay with EKVX; 2.47 µM (inactive) in the assay on HCC 2998; 23.3 µM (inactive) in the assay on A549. Further, the GI50 is 0.195 µM (active) in the assay with CAKI-1 and 23 µM (inactive) with SNB-75.
For `O=C(Sc1c(-c2ccccc2)c(=O)n(-c2ccccc2)c(=S)n1-c1ccccc1)c1ccco1`, the GI50 is > 100 µM (inactive) with U-251; 97.9 µM (inactive) with SK-MEL-5; 18.7 µM (inactive) in the assay with CCRF-CEM; > 100 µM (inactive) in the assay on SNB-19; > 100 µM (inactive) in the assay with DU-145; > 52.2 µM (inactive) in the assay with HOP-92. In addition, the GI50 in the assay on A498 is > 100 µM (inactive); with UACC-62, > 76.4 µM (inactive); in the assay on M14, > 100 µM (inactive); in the assay on NCI-H522, > 76.9 µM (inactive); with NCI/ADR-RES it was > 100 µM (inactive); in the assay on UO-31, > 100 µM (inactive). For the same molecule, the GI50 was > 100 µM (inactive) with TK-10; > 100 µM (inactive) in the assay on HOP-62; 21.5 µM (inactive) in the assay with HL-60; > 100 µM (inactive) in the assay with EKVX; > 100 µM (inactive) in the assay with HCC 2998; > 100 µM (inactive) in the assay with A549. Also, the GI50 with CAKI-1 is > 100 µM (inactive); in the assay with SNB-75 it was 72.1 µM (inactive).
With `Cc1ccc([S+]([O-])C[C@@]2(C(F)F)NC(=O)NC2=O)cc1` (stereo not given in full), the GI50 in the assay on U-251, in the assay with SK-MEL-5, in the assay on CCRF-CEM, in the assay on SNB-19, in the assay on DU-145 and in the assay on HOP-92 was > 100 µM (inactive) throughout. Further, the GI50 in the assay on A498, in the assay on UACC-62, in the assay with M14, in the assay on NCI-H522, in the assay with NCI/ADR-RES and in the assay with UO-31 was > 100 µM (inactive) each time. Moreover, the GI50 with TK-10, in the assay with HOP-62, with HL-60, with EKVX, in the assay with HCC 2998 and with A549 was > 100 µM (inactive) throughout. The GI50 in the assay on CAKI-1 and in the assay on SNB-75 was > 100 µM (inactive) each time.
Consider `O=C(O)Cn1ccnc1[N+](=O)[O-]`, for which the GI50 in the assay on U-251, with SK-MEL-5, in the assay with CCRF-CEM, in the assay with SNB-19, with DU-145 and in the assay with HOP-92 was > 100 µM (inactive) throughout. Further, the GI50 in the assay on A498, with UACC-62, in the assay with M14, with NCI-H522, in the assay with NCI/ADR-RES and with UO-31 was > 100 µM (inactive) each time. For the same molecule, the GI50 with TK-10, in the assay with HOP-62, in the assay on HL-60, in the assay with EKVX, with HCC 2998 and in the assay on A549 was > 100 µM (inactive) throughout. Further, the GI50 in the assay on CAKI-1 and with SNB-75 was > 100 µM (inactive) in each case.
